Assay results from patent US20090233938A1, “Thiazole derivatives as a2b antagonists” (priority 2004, published 2009).

Tested on: not given
Test: not given
Details: not given

melting point [°C] | Compound
> 275 | N#Cc1cccc(-c2nc(Nc3ccc(C(=O)O)cc3)sc2-c2ccnnc2)c1 [Example 15, 4-[4-(3-Cyano-phenyl)-5-pyridazin-4-yl-thiazol-2-ylamino]-benzoic acid]
> 280 | N#Cc1cccc(-c2nc(Nc3cnccn3)sc2-c2ccncn2)c1 [Example 12, 3-[2-(Pyrazin-2-ylamino)-5-pyrimidin-4-yl-thiazol-4-yl]-benzonitrile]
255 to 256 | COc1cccc(C(=O)Nc2nc(-c3cccc(C#N)c3)c(-c3ccncn3)s2)c1 [Example 11, N-[4-(3-Cyano-phenyl)-5-pyrimidin-4-yl-thiazol-2-yl]-3-methoxy-benzamide]

Target: T1, human adenosine A2b receptor (Homo sapiens, UniProt P29275)
T1 construct: expressed in transfected cells; host or cells: CHO cells co-transfected with reporter plasmid pCRE-LUCI and pA2bRCV
T1 sequence (P29275 1-332): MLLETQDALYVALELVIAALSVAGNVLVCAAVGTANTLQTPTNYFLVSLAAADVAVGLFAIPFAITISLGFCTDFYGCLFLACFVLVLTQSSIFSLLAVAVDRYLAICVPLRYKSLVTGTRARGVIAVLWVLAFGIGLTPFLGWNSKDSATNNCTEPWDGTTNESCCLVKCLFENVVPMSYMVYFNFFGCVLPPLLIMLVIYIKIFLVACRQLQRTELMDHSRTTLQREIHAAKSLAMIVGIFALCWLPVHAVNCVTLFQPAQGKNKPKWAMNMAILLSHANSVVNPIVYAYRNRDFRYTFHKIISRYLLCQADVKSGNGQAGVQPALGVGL
Test: Adenosine A2b receptor reporter gene assay (luciferase, CHO-A2b cells, NECA agonist)
Format: cell-based
Details: CHO cells with pCRE-LUCI and human A2b receptor; antagonist at 100 nM or 1 μM; shift of NECA concentration-response curve; KB=[antagonist]/(concentration ratio−1)
Method: Adenosine A2b Receptor Reporter Gene Assay a) Culturing of Chinese Hamster Ovary (CHO) A2b Cell Line
CHO cells transfected with a Luciferase-expressing reporter plasmid (pCRE-LUCI) and with a plasmid carrying the human adenosine A2b receptor structural gene (pA2bRCV) are routinely cultured in Dulbecco's Modified Eagle Medium (DMEM)—supplemented with 10% v/v fetal calf serum (FCS), 2 mM L-glutamine, 0.4 mg/ml L-proline, 1 nM sodium selenite, 0.5 mg/ml Hygromycin B and 1 mg/ml Geneticin—at 37° C., 5% CO2 and 100% humidity. The cells are left to grow to confluence for 4-5 days. The cells obtained are passaged using trypsin/EDTA and split at a ratio of 1 in 5. […]
b) Preparation of Cells for Assay
Prior to the assay, the CHO-A2b cells are plated onto white 96-well View Plate tissue culture plates (Packard) at a density of 50,000 cells per well in 50 μl of DMEM, and the plates are incubated at 37° C., 5% CO2 and 100% humidity. […]
c) Preparation of Reference and Test Compounds
10 mM solutions of the reference compound, Xanthine Amine Cogener (XAC), and the test compound in dimethyl sulfoxide (DMSO) are prepared. The solutions are further diluted with DMSO to 100 μM, then diluted to 10 μM, and finally to 250 nM or 2.5 μM with Assay Buffer (DMEM Phenol Red-free tissue culture media supplemented with 10 μM Rolipram and 10 U/ml adenosine deaminase (ADA). The resulting solutions (40 μl) are added to the cells in the appropriate wells, the final concentration per well being 100 nM or 1 μM, and the plates are incubated at 37° C., 5% CO2 and 100% humidity. […]
d) Luciferase Reporter Gene Assay
5′-N-ethylcarboxamidoadenosine (NECA), an adenosine A2b agonist, is prepared as a […] solution in DMSO and then diluted to 100 μM with Assay Buffer. This solution is serially diluted in Assay Buffer to give a series of 10 NECA concentrations from 100 to 0.01 μM. 10 μl portions of the resulting NECA solutions are added to the mixtures of CHO-A2b cells and reference or test compound solutions prepared as described above (preincubated for 30 minutes), final concentrations ranging from […] per well. The cells are incubated at 37° C., 5% CO2 and 100% humidity for 3 hours to induce release of cAMP, which then binds to cAMP binding protein (CBP) and the resulting complex interacts with the reporter plasmid to express Luciferase. 100 μl of Steady-Glo, a Luciferase assay substrate from Promega, is added to all wells to lyse the cells and generate luminescence in proportion to the amount of Lucifrease produced. The plates are left for a minimum of 5 minutes before being read on the luminescence program of a Topcount NXT microplate scintillation counter (ex Packard). Concentration—response curves are plotted from the luminescence data using Activity base software and KB values for the antagonists under test are calculated from the shifts of the curve at a particular concentration (KB=[antagonist]/(concentration ratio−1)

Kb [nM] | Compound
38 | Cc1ccnc(Nc2nc(-c3cccc(C#N)c3)c(-c3ccncn3)s2)c1 [Example 4]
50 | CN(C)c1cc(-c2sc(Nc3cccc(F)c3)nc2-c2cccc(C#N)c2)cnn1 [Example 16]
29 | N#Cc1cccc(Nc2nc(-c3cccc(C#N)c3)c(-c3ccncn3)s2)c1 [Example 6]
2 | N#Cc1cccc(-c2nc(Nc3cnccn3)sc2-c2ccncn2)c1 [Example 12, 3-[2-(Pyrazin-2-ylamino)-5-pyrimidin-4-yl-thiazol-4-yl]-benzonitrile]
6 | N#Cc1cccc(-c2nc(Nc3ccccn3)sc2-c2ccncn2)c1 [Example 9]
